In article PMC4508061, “Selectivity Profiling and Biological Activity of Novel β-Carbolines as Potent and Selective DYRK1 Kinase Inhibitors” (PLoS ONE, 2015):
Like-named read-outs stand apart in the source and are kept apart here.

Columns and labels:
DYRK1A [1] = biological target: T1, DYRK1A (Homo sapiens, UniProt Q13627); experiment: Kinase-GLO luminescent kinase assay; assay type: biochemical; conditions: 1 μM compound; means of at least 3 measurements
T1 construct: purchased ProQinase (Freiburg, Germany)
Procedure: (§1) Bacterial expression plasmids for GST-DYRK1A-ΔC and GST-DYRK2 have been described earlier. […] Expression in logarithmically growing E. coli culture was performed for 3 h at 37°C (GST-DYRK1A-ΔC and GST-DYRK2), 3 h at 26°C (GST-HIPK2cat), over night at 28°C (GST-CLK1cat) or over night at room temperature (GST-DYRK1Bcat).
(§2) Compounds were screened for inhibitory effects against GST-DYRK1A-ΔC, GST-DYRK1Bcat, GST-DYRK2, GST-CLK1cat or GST-HIPK2cat using the Kinase-GLO Luminescent Kinase Assay from Promega. Assays were performed in a total volume of 10 μL in kinase-buffer (25 mM Hepes pH 7.4, 0.5 mM DTT, 5 mM MgCl2, 5 μM ATP) with appropriate peptide substrates (20 μM DYRKtide for the DYRKs and 100 μM DYRKtide for HIPK2, […]; or 100 μM RS domain-derived peptide for CLK1, […]). Assays were started with this amount of a kinase preparation that consumed approximately 90% of the ATP in the assay (linear range of the kinase titration curve). The reactions were run at room temperature for 30 min before 10 μL Kinase-GLO reagent was added. After incubation at room temperature for additional 10 min, luminescence was recorded for 1 s.

DYRK2 = biological target: T2, DYRK2 (Homo sapiens, UniProt Q92630); experiment: Kinase-GLO luminescent kinase assay; assay type: biochemical; conditions: 1 μM compound; means of at least 3 measurements
T2 construct: purchased ProQinase (Freiburg, Germany)
T2 sequence (Q92630 1-601): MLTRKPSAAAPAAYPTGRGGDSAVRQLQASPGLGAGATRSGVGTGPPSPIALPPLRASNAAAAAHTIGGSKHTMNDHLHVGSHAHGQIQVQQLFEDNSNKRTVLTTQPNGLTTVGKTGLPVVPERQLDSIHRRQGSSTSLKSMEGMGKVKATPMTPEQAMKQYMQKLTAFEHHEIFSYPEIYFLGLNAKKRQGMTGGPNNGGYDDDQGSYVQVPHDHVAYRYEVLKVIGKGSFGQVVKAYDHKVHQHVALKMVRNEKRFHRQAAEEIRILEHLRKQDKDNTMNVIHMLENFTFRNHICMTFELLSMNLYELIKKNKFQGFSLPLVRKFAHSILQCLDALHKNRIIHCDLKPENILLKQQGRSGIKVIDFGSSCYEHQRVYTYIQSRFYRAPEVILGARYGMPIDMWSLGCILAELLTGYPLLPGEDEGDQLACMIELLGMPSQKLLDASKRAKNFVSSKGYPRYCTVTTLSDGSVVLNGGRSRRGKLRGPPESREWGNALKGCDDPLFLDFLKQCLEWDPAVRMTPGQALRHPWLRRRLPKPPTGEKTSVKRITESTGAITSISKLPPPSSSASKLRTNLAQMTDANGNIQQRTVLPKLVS
Procedure: as §1, §2

CLK1 [2] = biological target: T3, CLK1 (Homo sapiens, UniProt P49759); experiment: Kinase-GLO luminescent kinase assay; assay type: biochemical; design: made in house; host or cells: E. coli; conditions: 1 μM compound; means of at least 3 measurements
Procedure: as §1, §2
Target sequence in this assay (P49759 141-484): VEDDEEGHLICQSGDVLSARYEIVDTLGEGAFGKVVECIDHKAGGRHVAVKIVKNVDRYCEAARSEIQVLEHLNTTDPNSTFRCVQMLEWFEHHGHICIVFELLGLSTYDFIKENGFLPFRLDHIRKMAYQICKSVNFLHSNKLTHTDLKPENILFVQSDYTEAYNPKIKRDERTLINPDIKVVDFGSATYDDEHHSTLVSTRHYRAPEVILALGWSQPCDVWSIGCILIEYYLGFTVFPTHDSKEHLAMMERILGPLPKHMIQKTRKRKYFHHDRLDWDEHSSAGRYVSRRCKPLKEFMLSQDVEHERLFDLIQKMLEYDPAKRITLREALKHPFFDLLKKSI

DYRK1B = DYRK1B (Homo sapiens, UniProt Q9Y463); experiment: Kinase-GLO luminescent kinase assay; assay type: biochemical; design: made in house; host or cells: E. coli; conditions: 1 μM compound; means of at least 3 measurements
Procedure: as §1, §2

HIPK2 [3] = biological target: T4, HIPK2 (Homo sapiens, UniProt Q9H2X6); experiment: Kinase-GLO luminescent kinase assay; assay type: biochemical; design: made in house; host or cells: E. coli; conditions: 10 μM compound; means of at least 3 measurements
Procedure: as §1, §2
Target sequence in this assay (Q9H2X6 180-533): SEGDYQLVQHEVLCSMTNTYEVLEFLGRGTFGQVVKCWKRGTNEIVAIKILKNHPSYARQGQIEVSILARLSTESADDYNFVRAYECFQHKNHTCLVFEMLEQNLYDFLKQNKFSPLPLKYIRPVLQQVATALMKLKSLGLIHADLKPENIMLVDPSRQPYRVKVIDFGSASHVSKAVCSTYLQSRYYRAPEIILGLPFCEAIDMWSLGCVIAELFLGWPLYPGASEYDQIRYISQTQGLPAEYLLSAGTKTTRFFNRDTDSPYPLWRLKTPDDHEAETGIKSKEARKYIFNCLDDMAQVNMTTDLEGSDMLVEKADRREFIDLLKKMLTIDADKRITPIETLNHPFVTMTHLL

Cell viability XTT assay [4] = assay type: cell-based; conditions: human, read-out: Viability of treated cells relative to untreated control
Cell viability XTT assay [5] = assay type: cell-based; conditions: rat, read-out: Viability of treated cells relative to untreated control; for viability at 3 days, 1 µM: PC12, 1 μM
Cell viability XTT assay [6] = assay type: cell-based; conditions: human, read-out: Viability of treated cells relative to untreated control; remark: listed apart in the source
HeLa cells = experiment: Cell viability XTT assay; assay type: cell-based; conditions: 3 days
PC12 cells = experiment: Cell viability XTT assay; assay type: cell-based; conditions: 3 days
SH-SY5Y cells = experiment: Cell viability XTT assay; assay type: cell-based; conditions: 3 days
CLK3 = biological target: T5, CLK3 (Homo sapiens, UniProt P49761); conditions: 10 μM; cited from earlier work
T5 construct: purchased ProQinase (Freiburg, Germany)

DYRK1A [7] = conditions: 10 μM; cited from earlier work
CLK1 [8] = biological target: T3, CLK1; design: purchased ProQinase (Freiburg, Germany); conditions: 10 μM; cited from earlier work
HIPK1 = HIPK1 (Homo sapiens, UniProt Q86Z02); design: purchased ProQinase (Freiburg, Germany); conditions: 10 μM; cited from earlier work
HIPK2 [9] = biological target: T4, HIPK2; design: purchased ProQinase (Freiburg, Germany); conditions: 10 μM; cited from earlier work
Target sequence in this assay (Q9H2X6 whole entry): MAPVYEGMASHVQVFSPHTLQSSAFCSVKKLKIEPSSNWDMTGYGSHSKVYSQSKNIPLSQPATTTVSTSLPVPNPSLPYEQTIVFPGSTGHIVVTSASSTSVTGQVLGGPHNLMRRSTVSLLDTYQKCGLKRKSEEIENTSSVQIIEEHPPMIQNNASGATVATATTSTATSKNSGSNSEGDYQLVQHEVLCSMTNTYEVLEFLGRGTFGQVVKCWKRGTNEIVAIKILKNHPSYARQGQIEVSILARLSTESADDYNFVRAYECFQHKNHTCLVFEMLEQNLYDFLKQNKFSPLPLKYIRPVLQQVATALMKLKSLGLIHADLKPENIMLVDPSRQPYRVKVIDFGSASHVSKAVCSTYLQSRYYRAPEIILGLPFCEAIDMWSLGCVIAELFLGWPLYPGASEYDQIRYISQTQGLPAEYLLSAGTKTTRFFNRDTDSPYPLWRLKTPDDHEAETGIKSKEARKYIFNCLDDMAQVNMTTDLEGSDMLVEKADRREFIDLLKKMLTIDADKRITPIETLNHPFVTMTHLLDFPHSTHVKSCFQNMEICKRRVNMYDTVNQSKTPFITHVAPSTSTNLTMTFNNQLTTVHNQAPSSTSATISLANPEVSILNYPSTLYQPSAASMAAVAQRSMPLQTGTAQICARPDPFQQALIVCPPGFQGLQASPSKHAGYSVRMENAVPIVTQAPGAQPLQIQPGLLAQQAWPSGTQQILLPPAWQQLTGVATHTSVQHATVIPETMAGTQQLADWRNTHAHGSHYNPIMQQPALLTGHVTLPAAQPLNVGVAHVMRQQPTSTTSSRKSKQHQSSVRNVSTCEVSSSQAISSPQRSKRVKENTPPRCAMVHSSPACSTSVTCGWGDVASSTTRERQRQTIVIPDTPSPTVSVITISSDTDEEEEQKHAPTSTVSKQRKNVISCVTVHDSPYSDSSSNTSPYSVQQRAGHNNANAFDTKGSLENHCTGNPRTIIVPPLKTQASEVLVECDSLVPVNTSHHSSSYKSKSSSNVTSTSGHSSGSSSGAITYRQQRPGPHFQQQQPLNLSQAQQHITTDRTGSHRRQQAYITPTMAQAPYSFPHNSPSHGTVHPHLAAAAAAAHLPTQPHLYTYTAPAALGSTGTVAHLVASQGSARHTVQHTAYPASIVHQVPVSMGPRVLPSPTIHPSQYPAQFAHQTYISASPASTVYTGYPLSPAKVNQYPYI

HIPK4 = biological target: T6, HIPK4 (Homo sapiens, UniProt Q8NE63); design: purchased ProQinase (Freiburg, Germany); conditions: 10 μM; cited from earlier work
T6 sequence (Q8NE63 1-616): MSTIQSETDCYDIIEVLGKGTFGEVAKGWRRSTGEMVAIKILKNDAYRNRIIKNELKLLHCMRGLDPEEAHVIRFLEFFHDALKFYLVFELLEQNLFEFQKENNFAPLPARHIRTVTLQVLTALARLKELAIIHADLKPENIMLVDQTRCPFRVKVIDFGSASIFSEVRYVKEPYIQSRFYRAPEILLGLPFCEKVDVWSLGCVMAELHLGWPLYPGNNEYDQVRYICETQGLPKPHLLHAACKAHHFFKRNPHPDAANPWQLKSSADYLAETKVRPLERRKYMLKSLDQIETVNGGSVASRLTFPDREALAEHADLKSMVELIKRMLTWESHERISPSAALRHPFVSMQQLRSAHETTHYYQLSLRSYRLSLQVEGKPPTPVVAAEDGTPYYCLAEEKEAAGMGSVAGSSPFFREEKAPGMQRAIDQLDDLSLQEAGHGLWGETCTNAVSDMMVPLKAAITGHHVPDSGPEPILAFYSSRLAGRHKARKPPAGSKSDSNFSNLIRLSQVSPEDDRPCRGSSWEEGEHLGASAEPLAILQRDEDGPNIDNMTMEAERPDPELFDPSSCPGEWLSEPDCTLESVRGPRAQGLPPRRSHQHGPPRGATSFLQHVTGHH

IRAK1 = IRAK1 (Homo sapiens, UniProt P51617); design: purchased ProQinase (Freiburg, Germany); conditions: 10 μM; cited from earlier work
PIM2 = PIM2 (Homo sapiens, UniProt Q9P1W9); design: purchased ProQinase (Freiburg, Germany); conditions: 10 μM; cited from earlier work
PIM3 = PIM3 (Homo sapiens, UniProt Q86V86); design: purchased ProQinase (Freiburg, Germany); conditions: 10 μM; cited from earlier work
HIPK3 = HIPK3 (Homo sapiens, UniProt Q9H422); design: purchased ProQinase (Freiburg, Germany); conditions: 10 μM; cited from earlier work
PIM1 = PIM1 (Homo sapiens, UniProt P11309); design: purchased ProQinase (Freiburg, Germany); conditions: 10 μM; cited from earlier work

IRAK1, sequence (P51617 whole entry): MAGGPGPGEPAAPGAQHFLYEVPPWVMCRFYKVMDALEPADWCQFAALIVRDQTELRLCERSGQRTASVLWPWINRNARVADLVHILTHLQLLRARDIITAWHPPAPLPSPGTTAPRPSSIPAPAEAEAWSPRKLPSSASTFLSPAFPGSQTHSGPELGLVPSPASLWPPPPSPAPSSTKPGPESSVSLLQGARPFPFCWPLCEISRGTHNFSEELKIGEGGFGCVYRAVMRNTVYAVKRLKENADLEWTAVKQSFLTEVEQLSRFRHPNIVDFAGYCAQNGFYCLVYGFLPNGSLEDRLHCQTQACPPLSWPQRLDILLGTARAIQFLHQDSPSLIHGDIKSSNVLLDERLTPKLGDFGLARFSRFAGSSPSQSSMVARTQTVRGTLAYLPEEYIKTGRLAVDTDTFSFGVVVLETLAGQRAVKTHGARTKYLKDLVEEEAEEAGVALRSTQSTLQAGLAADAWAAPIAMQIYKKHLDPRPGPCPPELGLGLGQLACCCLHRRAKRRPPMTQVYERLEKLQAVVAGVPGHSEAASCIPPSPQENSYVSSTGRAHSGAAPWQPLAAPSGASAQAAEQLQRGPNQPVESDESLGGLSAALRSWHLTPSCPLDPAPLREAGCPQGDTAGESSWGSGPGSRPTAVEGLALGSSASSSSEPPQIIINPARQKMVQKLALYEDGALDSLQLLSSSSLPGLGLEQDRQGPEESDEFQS
HIPK1, sequence (Q86Z02 whole entry): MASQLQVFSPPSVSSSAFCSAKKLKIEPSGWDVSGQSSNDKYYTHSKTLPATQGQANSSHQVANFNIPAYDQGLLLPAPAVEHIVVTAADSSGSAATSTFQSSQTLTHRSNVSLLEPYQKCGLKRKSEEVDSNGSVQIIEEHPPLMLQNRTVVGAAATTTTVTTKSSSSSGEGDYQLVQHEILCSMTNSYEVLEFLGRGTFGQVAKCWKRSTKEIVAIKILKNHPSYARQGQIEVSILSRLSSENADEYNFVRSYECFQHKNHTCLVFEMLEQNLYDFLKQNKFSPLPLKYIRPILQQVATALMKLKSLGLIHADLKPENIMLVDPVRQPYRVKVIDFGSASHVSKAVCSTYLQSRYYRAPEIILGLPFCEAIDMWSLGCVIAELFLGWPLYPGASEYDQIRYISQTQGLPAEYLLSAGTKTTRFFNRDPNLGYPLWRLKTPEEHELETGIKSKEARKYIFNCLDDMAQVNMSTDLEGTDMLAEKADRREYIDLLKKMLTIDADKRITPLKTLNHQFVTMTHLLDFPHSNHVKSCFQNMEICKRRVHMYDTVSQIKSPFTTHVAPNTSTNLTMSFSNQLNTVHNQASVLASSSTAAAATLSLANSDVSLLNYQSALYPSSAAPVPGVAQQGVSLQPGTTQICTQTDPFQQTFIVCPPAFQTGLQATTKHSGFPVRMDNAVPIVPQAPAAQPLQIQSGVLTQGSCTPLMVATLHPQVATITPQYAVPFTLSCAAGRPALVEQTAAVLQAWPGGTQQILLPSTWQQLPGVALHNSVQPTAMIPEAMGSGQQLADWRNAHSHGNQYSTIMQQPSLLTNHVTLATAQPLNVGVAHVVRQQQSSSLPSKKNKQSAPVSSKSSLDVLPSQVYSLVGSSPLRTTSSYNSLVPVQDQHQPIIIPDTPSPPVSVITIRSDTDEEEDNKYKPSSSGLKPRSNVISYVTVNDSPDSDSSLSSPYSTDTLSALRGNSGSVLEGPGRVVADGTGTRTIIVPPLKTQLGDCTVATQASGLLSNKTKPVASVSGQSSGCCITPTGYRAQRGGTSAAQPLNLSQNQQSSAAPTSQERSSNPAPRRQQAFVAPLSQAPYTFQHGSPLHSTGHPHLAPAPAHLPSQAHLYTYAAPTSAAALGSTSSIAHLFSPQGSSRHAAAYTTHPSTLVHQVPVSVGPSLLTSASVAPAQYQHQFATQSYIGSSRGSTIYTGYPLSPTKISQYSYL
PIM2, sequence (Q9P1W9 whole entry): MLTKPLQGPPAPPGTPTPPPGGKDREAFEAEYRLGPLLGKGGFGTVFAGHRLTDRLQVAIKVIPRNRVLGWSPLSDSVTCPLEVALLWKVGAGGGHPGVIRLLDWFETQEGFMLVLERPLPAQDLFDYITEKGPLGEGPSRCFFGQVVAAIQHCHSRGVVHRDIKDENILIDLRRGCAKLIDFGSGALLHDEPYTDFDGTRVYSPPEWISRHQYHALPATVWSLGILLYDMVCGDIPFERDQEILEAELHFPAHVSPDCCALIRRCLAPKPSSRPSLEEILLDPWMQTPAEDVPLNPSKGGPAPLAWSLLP
T5 sequence (P49761 whole entry): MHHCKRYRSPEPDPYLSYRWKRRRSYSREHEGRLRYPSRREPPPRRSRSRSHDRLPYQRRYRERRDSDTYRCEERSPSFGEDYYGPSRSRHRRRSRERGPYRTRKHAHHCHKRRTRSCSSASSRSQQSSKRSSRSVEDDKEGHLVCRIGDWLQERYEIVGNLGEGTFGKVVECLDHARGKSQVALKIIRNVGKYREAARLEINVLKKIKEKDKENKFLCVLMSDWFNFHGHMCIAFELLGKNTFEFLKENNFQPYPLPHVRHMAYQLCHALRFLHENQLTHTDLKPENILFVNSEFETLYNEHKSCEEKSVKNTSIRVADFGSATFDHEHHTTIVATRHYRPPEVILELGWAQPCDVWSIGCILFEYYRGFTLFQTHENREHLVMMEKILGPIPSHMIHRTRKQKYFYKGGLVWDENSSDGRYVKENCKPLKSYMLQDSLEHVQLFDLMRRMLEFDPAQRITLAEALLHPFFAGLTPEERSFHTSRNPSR

COc1ccc2c(c1)[nH]c1c(/C=C/c3ccccc3)nccc12 [AnnH18_5]
Residual activity (% of control) DYRK1A (DYRK1A [1]): 27 % of control | Residual activity (% of control) DYRK2 (DYRK2): 51 % of control | Residual activity (% of control) CLK1 (CLK1 [2]): 58 % of control | Residual activity (% of control) DYRK1B (DYRK1B): 50 % of control | Residual activity (% of control) HIPK2 (HIPK2 [3]): 95 % of control

COc1ccc2c(c1)[nH]c1c(Cl)nccc12 [AnnH24]
Residual activity (% of control) DYRK2 (DYRK2): 63 % of control | viability at 3 days, 1 µM (Cell viability XTT assay [4]; HeLa cells): 97% | viability at 3 days, 3 µM (Cell viability XTT assay [4]; HeLa cells, 3 μM): 96% | viability at 3 days, 10 µM (Cell viability XTT assay [4]; HeLa cells, 10 μM): 72% | viability at 3 days, 1 µM (Cell viability XTT assay [5]; PC12 cells): 95% | viability at 3 days, 3 µM (Cell viability XTT assay [5]; PC12 cells, PC12, 3 μM): 90% | viability at 3 days, 10 µM (Cell viability XTT assay [5]; PC12 cells, PC12, 10 μM): 81% | viability at 3 days, 1 µM (Cell viability XTT assay [6]; SH-SY5Y cells): 75% | viability at 3 days, 3 µM (Cell viability XTT assay [6]; SH-SY5Y cells, 3 μM): 66% | viability at 3 days, 10 µM (Cell viability XTT assay [6]; SH-SY5Y cells, 10 μM): 45% | Residual activity (% of control) CLK1 (CLK1 [2]): 17 % of control | Residual activity (% of control) DYRK1B (DYRK1B): 44 % of control | Residual activity (% of control) HIPK2 (HIPK2 [3]): 91 % of control

COc1ccc2c3ccnc(C)c3n(CCC#N)c2c1 [AnnH42]
Residual activity (% of control) DYRK1A (DYRK1A [1]): 22 % of control | Residual activity (% of control) DYRK2 (DYRK2): 81 % of control | Residual activity (% of control) CLK1 (CLK1 [2]): 44 % of control | Residual activity (% of control) DYRK1B (DYRK1B): 43 % of control | Residual activity (% of control) HIPK2 (HIPK2 [3]): 96 % of control

C#CCn1c2c(C)nccc2c2ccc(Cl)c(Cl)c21 [AnnH67]
Residual activity (% of control) DYRK1A (DYRK1A [1]): 17 % of control | Residual activity (% of control) DYRK2 (DYRK2): 100 % of control | Residual activity (% of control) CLK1 (CLK1 [2]): 34 % of control | Residual activity (% of control) DYRK1B (DYRK1B): 59 % of control | Residual activity (% of control) HIPK2 (HIPK2 [3]): 74 % of control

Cc1nccc2c3ccc(Cl)c(Cl)c3n(CC#N)c12 [AnnH69]
Residual activity (% of control) DYRK1A (DYRK1A [1]): 17 % of control | Residual activity (% of control) DYRK2 (DYRK2): 61 % of control | Residual activity (% of control) CLK1 (CLK1 [2]): 33 % of control | Residual activity (% of control) DYRK1B (DYRK1B): 60 % of control | Residual activity (% of control) HIPK2 (HIPK2 [3]): 33 % of control

C#CCn1c2cc(OC)ccc2c2ccnc(Cl)c21 [AnnH74]
Residual activity (% of control) DYRK1A (DYRK1A [1]): 12 % of control | Residual activity (% of control) DYRK2 (DYRK2): 85 % of control | Residual activity (% of control) CLK1 (CLK1 [2]): 46 % of control | Residual activity (% of control) DYRK1B (DYRK1B): 35 % of control | Residual activity (% of control) HIPK2 (HIPK2 [3]): 97 % of control

Nc1ncnc2c1c(I)cn2[C@@H]1O[C@H](CO)[C@@H](O)[C@H]1O [IoT, 5-iodotubercidin, reference compound]
Residual activity (% of control) DYRK1A (DYRK1A [1]): 13 % of control | Residual activity (% of control) DYRK2 (DYRK2): 10 % of control | Viability of treated cells relative to untreated control (HeLa cells; 1 μM): 67% | Viability of treated cells relative to untreated control (HeLa cells; 3 μM): 16% | Viability of treated cells relative to untreated control (HeLa cells; 10 μM): 18% | Viability of treated cells relative to untreated control (PC12 cells; PC12, 1 μM): 62% | Viability of treated cells relative to untreated control (PC12 cells; PC12, 3 μM): 17% | Viability of treated cells relative to untreated control (PC12 cells; PC12, 10 μM): 5% | Viability of treated cells relative to untreated control (SH-SY5Y cells; 1 μM): 13% | Viability of treated cells relative to untreated control (SH-SY5Y cells; 3 μM): 10% | Viability of treated cells relative to untreated control (SH-SY5Y cells; 10 μM): 15% | Residual activity (% of control) CLK1 (CLK1 [2]): 4 % of control | Residual activity (% of control) DYRK1B (DYRK1B): 4 % of control | Residual activity (% of control) HIPK2 (HIPK2 [3]): 20 % of control

O=C1NC(Nc2ccccc2)=N/C1=C\c1ccc2c(c1)OCO2 [L41]
Residual activity (% of control) (CLK3): 2 % of control | Residual activity (% of control) (DYRK1A [7]): 0 % of control | Residual activity (% of control) (CLK1 [8]): 0 % of control | Residual activity (% of control) (HIPK1): 1 % of control | Residual activity (% of control) (HIPK2 [9]): 11 % of control | Residual activity (% of control) (HIPK4): 44 % of control | Residual activity (% of control) (IRAK1): 3 % of control | Residual activity (% of control) (PIM2): 41 % of control | Residual activity (% of control) (PIM3): 27 % of control

CN1C(=O)/C(=C/c2ccc3c(c2)OCO3)N=C1N [Leucett-amine B, Leucettamine B]
Residual activity (% of control) (DYRK1A [7]): 2 % of control | Residual activity (% of control) (HIPK1): 34 % of control | Residual activity (% of control) (HIPK2 [9]): 60 % of control | Residual activity (% of control) (HIPK3): 45 % of control | Residual activity (% of control) (HIPK4): 91 % of control | Residual activity (% of control) (IRAK1): 100 % of control | Residual activity (% of control) (PIM1): 73 % of control | Residual activity (% of control) (PIM2): 82 % of control | Residual activity (% of control) (PIM3): 71 % of control

CN[C@@H]1C[C@H]2O[C@@](C)([C@@H]1OC)n1c3ccccc3c3c4c(c5c6ccccc6n2c5c31)C(=O)NC4 [Staurosporine, reference compound]
viability at 3 days, 1 µM (Cell viability XTT assay [4]; HeLa): 8% | viability at 3 days, 1 µM (Cell viability XTT assay [5]): 18% | viability at 3 days, 1 µM (Cell viability XTT assay [6]; SH-SY5Y): 6%
